Measured values as given in patent US20120052130A1, “GPR 119 MODULATORS” (Pfizer Inc., priority 2009, published 2012).
pEC50: −log10 of the molar value. Values joined by “and” are separate entries in the source; they are usually repeats but may differ in a detail not shown here. Equal entries are not always repeated.

Target: T1, human GPR119 (Homo sapiens, UniProt Q8TDV5)
T1 sequence (Q8TDV5 1-335): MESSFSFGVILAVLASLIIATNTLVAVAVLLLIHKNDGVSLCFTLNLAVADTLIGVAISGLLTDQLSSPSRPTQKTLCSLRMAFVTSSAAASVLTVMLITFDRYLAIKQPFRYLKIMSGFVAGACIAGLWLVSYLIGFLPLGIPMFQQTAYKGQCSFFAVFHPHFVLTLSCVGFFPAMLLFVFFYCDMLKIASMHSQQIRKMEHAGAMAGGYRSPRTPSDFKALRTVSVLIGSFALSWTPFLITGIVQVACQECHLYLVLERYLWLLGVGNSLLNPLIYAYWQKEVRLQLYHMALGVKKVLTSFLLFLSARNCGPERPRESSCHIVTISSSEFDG
Assay: HTRF cAMP cell-based GPR119 agonist assay (hGPR119 HEK-CRE beta-lactamase cells)
Set-up: host or cells: hGPR119-HEK293-CRE-beta-lactamase cells
Details: HTRF cAMP, hGPR119 HEK-CRE beta-lactamase cells; each line is a separate determination; read-out: Human cAMP Functional EC50
Experimental: GPR119 agonist activity was also determined with a cell-based assay utilizing an HTRF (Homogeneous Time-Resolved Fluorescence) cAMP detection kit (cAMP dynamic 2 Assay Kit; Cis Bio cat #62AM4PEC) that measures cAMP levels in the cell. The method is a competitive immunoassay between native cAMP produced by the cells and the cAMP labeled with the dye d2. The tracer binding is visualized by a Mab anti-cAMP labeled with Cryptate. The specific signal (i.e. energy transfer) is inversely proportional to the concentration of cAMP in either standard or sample.
Specifically, hGPR119HEK-CRE beta-lactamase cells (Invitrogen 2.5×10^7/mL; the same cell line used in the beta-lactamase assay described above) are removed from cryopreservation and diluted in growth medium (Dulbecco's modified Eagle medium high glucose (DMEM; Gibco Cat #11995-065), 1% charcoal dextran treated fetal bovine serum (CD serum; HyClone Cat # SH30068.03), 1×MEM Nonessential amino acids (Gibco Cat #15630-080) and 25 mM HEPES pH 7.0 (Gibco Cat #15630-080)). The cell concentration was adjusted to 1.5×10^5 cells/mL and 30 mLs of this suspension was added to a T-175 flask and incubated at 37 degrees Celsius in a humidified environment in 5% carbon dioxide. […]
Varying concentrations of each compound to be tested were diluted in assay buffer containing 3-isobutyl-1-methylxanthin (IBMX; Sigma cat #15879) and added to the assay plate wells in a volume of 2 microL (final IBMX concentration was 400 microM and final DMSO concentration was 0.58%). […] The plates were then incubated at room temperature and after 60 minutes, changes in the HTRF signal were read with an Envision 2104 multilabel plate reader using excitation of 330 nm and emissions of 615 and 665 nm. Raw data were converted to nM cAMP by interpolation from a cAMP standard curve (as described in the manufacturer's assay protocol) and EC50 determinations were made from an agonist-response curves analyzed with a curve fitting program using a 4-paramter logistic dose response equation.

| pEC50 | Structure (SMILES) |
| --- | --- |
| 6.43 and 6.71 and 7.06 | Cc1c(O[C@@H]2[C@@H]3COC[C@H]2CN(C(=O)OC2(C)CC2)C3)ncnc1N1CCc2ncccc21 [Example 28, 1-Methylcyclopropyl (9-syn)-9-{[6-(2,3-dihydro-1H-pyrrolo[3,2-b]pyridin-1-yl)-5-methylpyrimidin-4-yl]oxy}-3-oxa-7-azabicyclo[3.3.1]nonane-7-carboxylate] |
| 6.51 and 6.01 and 5.98 and 5.88 | Cc1c(O[C@@H]2[C@@H]3COC[C@H]2CN(C(=O)OC(C)C)C3)ncnc1N1CCc2cc(S(C)(=O)=O)ccc21 [Example 23, Isopropyl (9-syn)-9-({5-methyl-6-[5-(methylsulfonyl)-2,3-dihydro-1H-indol-1-yl]pyrimidin-4-yl}oxy)-3-oxa-7-azabicyclo[3.3.1]nonane-7-carboxylate] |
